For one test, the target named is BRM (Homo sapiens, UniProt P51531). Kind of test: Immunofluorescence assay for BRM degradation in SW1573 cells. Also noted: treated overnight at 4° C. with either BRM primary antibody (Cell signaling Cat #11966) or BRG primary antibody; endogenous in cells; host or cells: SW1573. Format: cell-based. The note with it: 20 hours incubation; for DC50: immunofluorescence mean nuclear signal, read-out: BRM IF Degradation IC50; for BRM IF Degradation Sinf (%): normalized to a known degrader control. The method in brief: (§1)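 Imaging-based readout in SW1573: 20 h dosing, formaldehyde fixation, antibody staining for either remodeler, nuclear intensity per cell quantified. Values normalized to control degrader; floating-maximum fit.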

The next test has as its target T1, BRG1 (Homo sapiens, UniProt P51532).
T1 construct: either BRM primary antibody (Cell signaling Cat #11966) or BRG primary antibody (Abcam, ab 110641); endogenous in cells; host or cells: SW1573
The test is described as follows: Immunofluorescence assay for BRG1 degradation in SW1573 cells. Format: cell-based. The note with it: 20 hours incubation; for DC50: immunofluorescence mean nuclear signal, read-out: BRG1 IF Degradation IC50; for Dmax: SW1573, 20 h, normalized to a known degrader control, read-out: BRG1 IF Degradation Sinf (%). In outline: as §1

T1 sequence (P51532 whole entry): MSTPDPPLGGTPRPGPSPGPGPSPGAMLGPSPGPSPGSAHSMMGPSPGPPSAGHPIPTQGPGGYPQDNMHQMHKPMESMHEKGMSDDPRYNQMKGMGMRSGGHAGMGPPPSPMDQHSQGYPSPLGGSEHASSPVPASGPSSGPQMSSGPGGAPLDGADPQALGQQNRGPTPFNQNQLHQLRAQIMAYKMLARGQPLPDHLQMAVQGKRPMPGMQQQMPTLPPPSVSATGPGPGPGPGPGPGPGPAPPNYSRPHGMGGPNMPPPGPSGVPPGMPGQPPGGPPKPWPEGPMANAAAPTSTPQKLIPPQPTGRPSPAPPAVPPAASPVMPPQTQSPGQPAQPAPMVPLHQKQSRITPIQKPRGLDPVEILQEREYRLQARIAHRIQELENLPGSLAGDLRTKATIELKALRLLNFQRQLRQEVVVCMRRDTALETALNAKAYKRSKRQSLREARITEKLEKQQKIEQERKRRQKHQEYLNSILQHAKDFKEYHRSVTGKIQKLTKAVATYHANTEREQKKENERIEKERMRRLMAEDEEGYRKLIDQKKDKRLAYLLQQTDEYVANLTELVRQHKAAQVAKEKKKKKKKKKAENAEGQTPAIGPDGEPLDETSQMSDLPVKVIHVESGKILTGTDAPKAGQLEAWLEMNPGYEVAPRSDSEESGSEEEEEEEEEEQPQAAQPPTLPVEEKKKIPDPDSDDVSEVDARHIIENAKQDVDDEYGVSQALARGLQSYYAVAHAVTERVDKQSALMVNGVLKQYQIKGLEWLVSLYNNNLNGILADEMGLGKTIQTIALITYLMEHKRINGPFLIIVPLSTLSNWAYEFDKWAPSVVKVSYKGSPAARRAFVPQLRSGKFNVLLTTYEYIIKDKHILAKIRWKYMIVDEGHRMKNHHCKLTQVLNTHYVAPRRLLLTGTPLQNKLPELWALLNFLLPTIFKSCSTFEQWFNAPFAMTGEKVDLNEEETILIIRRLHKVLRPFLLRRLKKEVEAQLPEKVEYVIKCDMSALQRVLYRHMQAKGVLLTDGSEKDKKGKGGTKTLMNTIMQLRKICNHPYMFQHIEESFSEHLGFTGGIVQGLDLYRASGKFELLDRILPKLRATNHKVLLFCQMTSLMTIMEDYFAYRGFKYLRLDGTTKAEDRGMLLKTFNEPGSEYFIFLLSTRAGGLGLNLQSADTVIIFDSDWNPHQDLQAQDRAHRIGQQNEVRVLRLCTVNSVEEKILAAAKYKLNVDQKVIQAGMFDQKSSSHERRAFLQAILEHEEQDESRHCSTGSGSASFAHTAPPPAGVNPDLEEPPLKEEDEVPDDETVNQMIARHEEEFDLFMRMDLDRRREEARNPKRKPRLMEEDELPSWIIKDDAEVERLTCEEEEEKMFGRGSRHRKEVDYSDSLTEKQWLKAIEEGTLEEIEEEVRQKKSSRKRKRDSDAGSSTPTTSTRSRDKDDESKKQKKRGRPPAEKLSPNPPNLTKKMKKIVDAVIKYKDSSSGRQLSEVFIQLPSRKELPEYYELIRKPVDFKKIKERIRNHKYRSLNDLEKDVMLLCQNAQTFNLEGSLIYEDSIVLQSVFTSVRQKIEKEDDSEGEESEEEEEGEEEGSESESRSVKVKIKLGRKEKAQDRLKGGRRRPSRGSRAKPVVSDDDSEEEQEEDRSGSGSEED
BRM, sequence (P51531 whole entry): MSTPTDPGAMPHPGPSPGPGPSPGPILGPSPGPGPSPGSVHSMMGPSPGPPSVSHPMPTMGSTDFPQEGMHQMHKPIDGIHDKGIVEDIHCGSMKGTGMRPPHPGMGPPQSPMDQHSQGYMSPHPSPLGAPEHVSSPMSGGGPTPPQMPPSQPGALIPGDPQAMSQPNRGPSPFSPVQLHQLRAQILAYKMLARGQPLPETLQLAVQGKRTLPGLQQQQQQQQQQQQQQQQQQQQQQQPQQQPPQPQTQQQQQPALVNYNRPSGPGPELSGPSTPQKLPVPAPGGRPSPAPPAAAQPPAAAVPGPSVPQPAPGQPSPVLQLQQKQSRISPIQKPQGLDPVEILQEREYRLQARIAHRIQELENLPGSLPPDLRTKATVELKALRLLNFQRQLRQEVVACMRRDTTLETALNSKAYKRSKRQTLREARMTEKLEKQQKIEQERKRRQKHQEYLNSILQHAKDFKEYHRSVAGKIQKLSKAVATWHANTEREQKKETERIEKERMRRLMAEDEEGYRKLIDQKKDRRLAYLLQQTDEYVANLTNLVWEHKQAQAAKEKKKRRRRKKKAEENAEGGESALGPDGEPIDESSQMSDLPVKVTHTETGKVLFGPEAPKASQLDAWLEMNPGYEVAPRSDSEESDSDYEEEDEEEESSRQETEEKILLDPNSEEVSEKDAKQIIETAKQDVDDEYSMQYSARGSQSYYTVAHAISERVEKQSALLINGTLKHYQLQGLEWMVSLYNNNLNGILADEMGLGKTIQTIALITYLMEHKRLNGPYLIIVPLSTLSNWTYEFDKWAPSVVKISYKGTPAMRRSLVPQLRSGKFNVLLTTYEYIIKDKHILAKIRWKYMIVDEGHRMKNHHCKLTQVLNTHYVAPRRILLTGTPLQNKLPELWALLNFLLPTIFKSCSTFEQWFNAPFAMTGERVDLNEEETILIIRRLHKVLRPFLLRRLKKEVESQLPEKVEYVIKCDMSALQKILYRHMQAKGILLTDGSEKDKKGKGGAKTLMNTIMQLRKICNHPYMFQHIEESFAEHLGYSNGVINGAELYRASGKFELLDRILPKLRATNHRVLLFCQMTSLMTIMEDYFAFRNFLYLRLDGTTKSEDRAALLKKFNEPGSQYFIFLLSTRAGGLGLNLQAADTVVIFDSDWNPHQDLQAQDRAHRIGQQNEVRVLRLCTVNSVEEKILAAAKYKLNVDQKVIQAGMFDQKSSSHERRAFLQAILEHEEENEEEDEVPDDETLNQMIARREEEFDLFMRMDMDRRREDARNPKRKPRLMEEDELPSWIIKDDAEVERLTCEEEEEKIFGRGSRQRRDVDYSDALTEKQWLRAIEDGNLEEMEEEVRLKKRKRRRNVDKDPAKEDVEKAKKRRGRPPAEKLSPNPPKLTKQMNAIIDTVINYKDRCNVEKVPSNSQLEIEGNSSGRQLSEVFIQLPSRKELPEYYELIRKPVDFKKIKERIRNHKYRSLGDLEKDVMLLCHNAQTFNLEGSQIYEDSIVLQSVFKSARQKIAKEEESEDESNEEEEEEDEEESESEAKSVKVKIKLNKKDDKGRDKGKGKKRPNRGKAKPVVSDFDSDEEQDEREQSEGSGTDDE

Turning to `Nc1nnc(-c2ccccc2O)cc1N1CC2CCC(C1)N2c1ccnc(C#CCN2CC(Oc3ccccc3)C2)c1` [Compound 226, 2-[6-amino-5-[8-[2-[3-(3-phenoxyazetidin-1-yl)prop-1-ynyl]-4-pyridyl]-3,8-diazabicyclo[3.2.1]octan-3-yl]pyridazin-3-yl]phenol], on BRM, the DC50 is 10 to 100 nM and the “BRM IF Degradation Sinf (%)” value was “E (E indicates −30%-−70%)”. In addition, at BRG1, the DC50 was under 10 nM and the Dmax is 30 to 70%.
Consider `CS(=O)(=O)C1CN(CC#Cc2cc(N3C4CCC3CN(c3cc(-c5ccccc5O)nnc3N)C4)ccn2)C1` [Compound 227, 2-[6-amino-5-[8-[2-[3-(3-methylsulfonylazetidin-1-yl)prop-1-ynyl]-4-pyridyl]-3,8-diazabicyclo[3.2.1]octan-3-yl]pyridazin-3-yl]phenol], for which, on BRM, the DC50 is over 100 nM and the “BRM IF Degradation Sinf (%)” value is “E (E indicates −30%-−70%)”. Besides, the DC50 at BRG1 was over 100 nM.
With `Nc1nnc(-c2ccccc2O)cc1N1CC2CCC(C1)N2c1ccnc(C#CCN2CC(F)C2)c1` [Compound 228, 2-[6-amino-5-[8-[2-[3-(3-fluoroazetidin-1-yl)prop-1-ynyl]-4-pyridyl]-3,8-diazabicyclo[3.2.1]octan-3-yl]pyridazin-3-yl]phenol], at BRM, the DC50 was under 10 nM and the “BRM IF Degradation Sinf (%)” value is “E (E indicates −30%-−70%)”. In addition, at BRG1, the DC50 is under 10 nM and the Dmax was in the range of 0 to 30%.
For the compound `Nc1nnc(-c2ccccc2O)cc1N1CC2CCC(C1)N2c1ccnc(C#CCN2CC(N3CCOCC3)C2)c1` [Compound 229, 2-[6-amino-5-[8-[2-[3-(3-morpholinoazetidin-1-yl)prop-1-ynyl]-4-pyridyl]-3,8-diazabicyclo[3.2.1]octan-3-yl]pyridazin-3-yl]phenol], at BRM, the DC50 is 10 to 100 nM and the “BRM IF Degradation Sinf (%)” value is given as “F (F indicates −71%-−120%)”. Also, at BRG1, the DC50 fell in the range of 10 to 100 nM and the Dmax lay within 30 to 70%.
Take `Nc1nnc(-c2ccccc2O)cc1N1CC2CCC(C1)N2c1ccnc(C#CCN2CC3(CCCCC3)C2)c1` [Compound 230, 2-[6-amino-5-[8-[2-[3-(2-azaspiro[3.5]nonan-2-yl)prop-1-ynyl]-4-pyridyl]-3,8-diazabicyclo[3.2.1]octan-3-yl]pyridazin-3-yl]phenol]: on BRM, the DC50 fell in the range of 10 to 100 nM and the “BRM IF Degradation Sinf (%)” value was “E (E indicates −30%-−70%)”. On BRG1, the DC50 lay within 10 to 100 nM and the Dmax lay in the range of 30 to 70%.
Take `Nc1nnc(-c2ccccc2O)cc1N1CC2CCC(C1)N2c1ccnc(C#CCN2CC(c3ccncn3)C2)c1` [Compound 231, 2-[6-amino-5-[8-[2-[3-(3-pyrimidin-4-ylazetidin-1-yl)prop-1-ynyl]-4-pyridyl]-3,8-diazabicyclo[3.2.1]octan-3-yl]pyridazin-3-yl]phenol]: on BRM, the DC50 was under 10 nM and the “BRM IF Degradation Sinf (%)” value is listed as “E (E indicates −30%-−70%)”. In addition, at BRG1, the DC50 is under 10 nM and the Dmax lay within 30 to 70%.
Turning to `Nc1nnc(-c2ccccc2O)cc1N1CC2CCC(C1)N2c1ccnc(C#CCN2CC(C(F)(F)F)C2)c1` [Compound 232, 2-[6-amino-5-[8-[2-[3-[3-(trifluoromethyl)azetidin-1-yl]prop-1-ynyl]-4-pyridyl]-3,8-diazabicyclo[3.2.1]octan-3-yl]pyridazin-3-yl]phenol], on BRM, the DC50 lay in the range of 10 to 100 nM and the “BRM IF Degradation Sinf (%)” value is listed as “E (E indicates −30%-−70%)”. In addition, on BRG1, the DC50 was under 10 nM and the Dmax lay within 30 to 70%.
For the compound `Nc1nnc(-c2ccccc2O)cc1N1CC2CCC(C1)N2c1ccnc(C#CCN2CC3(CC3)C2)c1` [Compound 233, 2-[6-amino-5-[8-[2-[3-(5-azaspiro[2.3]hexan-5-yl)prop-1-ynyl]-4-pyridyl]-3,8-diazabicyclo[3.2.1]octan-3-yl]pyridazin-3-yl]phenol], on BRM, the DC50 is under 10 nM and the “BRM IF Degradation Sinf (%)” value is “E (E indicates −30%-−70%)”. In addition, on BRG1, the DC50 was under 10 nM and the Dmax fell in the range of 30 to 70%.
For `Nc1nnc(-c2ccccc2O)cc1N1CC2CCC(C1)N2c1ccnc(C#CCN2CC(c3ccccc3)C2)c1` [Compound 234, 2-[6-amino-5-[8-[2-[3-(3-phenylazetidin-1-yl)prop-1-ynyl]-4-pyridyl]-3,8-diazabicyclo[3.2.1]octan-3-yl]pyridazin-3-yl]phenol], at BRM, the DC50 was 10 to 100 nM and the “BRM IF Degradation Sinf (%)” value is given as “E (E indicates −30%-−70%)”. At BRG1, the DC50 lay in the range of 10 to 100 nM and the Dmax is 71 to 120%.
Consider `Nc1nnc(-c2ccccc2O)cc1N1CC2CCC(C1)N2c1ccnc(C#CCN2CCC23CCC3)c1` [Compound 235, 2-[6-amino-5-[8-[2-[3-(1-azaspiro[3.3]heptan-1-yl)prop-1-ynyl]-4-pyridyl]-3,8-diazabicyclo[3.2.1]octan-3-yl]pyridazin-3-yl]phenol], for which, at BRM, the DC50 fell in the range of 10 to 100 nM and the “BRM IF Degradation Sinf (%)” value was “F (F indicates −71%-−120%)”. Further, at BRG1, the DC50 is under 10 nM and the Dmax was in the range of 30 to 70%.
The matching figures for `CS(=O)(=O)N1CCC2(CN(CC#Cc3cc(N4C5CCC4CN(c4cc(-c6ccccc6O)nnc4N)C5)ccn3)C2)C1` [Compound 236, 2-[6-amino-5-[8-[2-[3-(7-methylsulfonyl-2,7-diazaspiro[3.4]octan-2-yl)prop-1-ynyl]-4-pyridyl]-3,8-diazabicyclo[3.2.1]octan-3-yl]pyridazin-3-yl]phenol]: over 100 nM, “F (F indicates −71%-−120%)”, 10 to 100 nM and 0 to 30%.
Turning to `N#Cc1ccc(C2CN(CC#Cc3cc(N4C5CCC4CN(c4cc(-c6ccccc6O)nnc4N)C5)ccn3)C2)cc1` [Compound 237, 4-[1-[3-[4-[3-[3-amino-6-(2-hydroxyphenyl)pyridazin-4-yl]-3,8-diazabicyclo[3.2.1]octan-8-yl]-2-pyridyl]prop-2-ynyl]azetidin-3-yl]benzonitrile], at BRM, the DC50 fell in the range of 10 to 100 nM and the “BRM IF Degradation Sinf (%)” value was “E (E indicates −30%-−70%)”. On BRG1, the DC50 was in the range of 10 to 100 nM and the Dmax lay within 30 to 70%.
`Nc1nnc(-c2ccccc2O)cc1N1CC2CCC(C1)N2c1ccnc(C#CCN2CC(F)(C3CC3)C2)c1` [Compound 238, 2-[6-amino-5-[8-[2-[3-(3-cyclopropyl-3-fluoro-azetidin-1-yl)prop-1-ynyl]-4-pyridyl]-3,8-diazabicyclo[3.2.1]octan-3-yl]pyridazin-3-yl]phenol]: at BRM, the DC50 lay within 10 to 100 nM and the “BRM IF Degradation Sinf (%)” value is “E (E indicates −30%-−70%)”. Also, on BRG1, the DC50 was under 10 nM and the Dmax fell in the range of 30 to 70%.
The matching figures for `CC1CCN(CC#Cc2cc(N3C4CCC3CN(c3cc(-c5ccccc5O)nnc3N)C4)ccn2)CCC1(C)O` (centres unmarked) [Compound 239, 1-[3-[4-[3-[3-amino-6-(2-hydroxyphenyl)pyridazin-4-yl]-3,8-diazabicyclo[3.2.1]octan-8-yl]-2-pyridyl]prop-2-ynyl]-4,5-dimethyl-azepan-4-ol]: under 10 nM, “E (E indicates −30%-−70%)”, under 10 nM and 30 to 70%.
The matching figures for `CC1(O)CCCCN(CC#Cc2cc(N3C4CCC3CN(c3cc(-c5ccccc5O)nnc3N)C4)ccn2)C1` (centres unmarked) [Compound 240, 1-[3-[4-[3-[3-amino-6-(2-hydroxyphenyl)pyridazin-4-yl]-3,8-diazabicyclo[3.2.1]octan-8-yl]-2-pyridyl]prop-2-ynyl]-3-methyl-azepan-3-ol]: 10 to 100 nM, “F (F indicates −71%-−120%)”, 10 to 100 nM and 30 to 70%.
The like results for `Nc1nnc(-c2ccccc2O)cc1N1CC2CCC(C1)N2c1ccnc(C#CCN2CCCCC(O)(CF)C2)c1` (centres unmarked) [Compound 241, 1-[3-[4-[3-[3-amino-6-(2-hydroxyphenyl)pyridazin-4-yl]-3,8-diazabicyclo[3.2.1]octan-8-yl]-2-pyridyl]prop-2-ynyl]-3-(fluoromethyl)azepan-3-ol] were, in that order, 10 to 100 nM, “E (E indicates −30%-−70%)”, under 10 nM and 0 to 30%.
As for `Nc1nnc(-c2ccccc2O)cc1N1CC2CCC(C1)N2c1ccnc(C#CCN2CCCCC(O)C2)c1` (centres unmarked) [Compound 242, 1-[3-[4-[3-[3-amino-6-(2-hydroxyphenyl)pyridazin-4-yl]-3,8-diazabicyclo[3.2.1]octan-8-yl]-2-pyridyl]prop-2-ynyl]azepan-3-ol], on BRM, the DC50 is under 10 nM and the “BRM IF Degradation Sinf (%)” value is on record as “F (F indicates −71%-−120%)”. In addition, at BRG1, the DC50 is under 10 nM and the Dmax fell in the range of 30 to 70%.
With `CC1(F)CCCCN(CC#Cc2cc(N3C4CCC3CN(c3cc(-c5ccccc5O)nnc3N)C4)ccn2)C1` (centres unmarked) [Compound 243, 2-[6-amino-5-[8-[2-[3-(3-fluoro-3-methyl-azepan-1-yl)prop-1-ynyl]-4-pyridyl]-3,8-diazabicyclo[3.2.1]octan-3-yl]pyridazin-3-yl]phenol], at BRM, the DC50 fell in the range of 10 to 100 nM and the “BRM IF Degradation Sinf (%)” value was “F (F indicates −71%-−120%)”. Moreover, at BRG1, the DC50 was under 10 nM and the Dmax was in the range of 30 to 70%.

Values taken from patent US11993599B2, “Therapeutic compounds” (Genentech, Inc., priority 2021, dated 2024).
